From the Kinase Knowledgebase extract (Sharma et al. 2016)

Target: CDK2 (human) (UniProt P24941)
Test: Enzyme Assay
Settings: not given

SMILES | IC50
NS(=O)(=O)c1ccc(N/C=C2\C(=O)Nc3ncccc32)cc1 | 550 nM
NS(=O)(=O)c1ccc(N/C=C2\C(=O)Nc3ncc(-c4ccccc4)cc32)cc1 | 5500 nM
Cc1cc(=O)[nH]n1-c1ccc(N/C=C2\C(=O)Nc3ccc4ncsc4c32)cc1 | 30 nM
O=C1Nc2ncc(-c3ccco3)cc2/C1=C/Nc1ccc2cn[nH]c2c1 | 5500 nM
O=C1Nc2ccc3ccncc3c2/C1=C/Nc1ccc(Cc2ccncc2)cc1 | 30 nM
NS(=O)(=O)c1ccc(N/C=C2\C(=O)Nc3ncc(-c4ccsc4)cc32)cc1 | 550 nM
CCOC(=O)c1cnc2c(c1)/C(=C/Nc1ccc(S(N)(=O)=O)cc1)C(=O)N2 | 55 nM
CCOC(=O)c1cnc2c(c1)/C(=C/Nc1ccc3cn[nH]c3c1)C(=O)N2 | 55 nM
NC(=O)c1ccc(N/C=C2\C(=O)Nc3ccc4ncsc4c32)cc1 | 75 nM
O=C1Nc2ncc(Br)cc2/C1=C/Nc1ccc2cn[nH]c2c1 | 55 nM
NS(=O)(=O)c1ccc(N/C=C2\C(=O)Nc3cnccc32)cc1 | 55 nM
NS(=O)(=O)c1ccc(N/C=C2/C(=O)Nc3ccncc32)cc1.NS(=O)(=O)c1ccc(N/C=C2\C(=O)Nc3ccncc32)cc1 | 55 nM
O=C1Nc2ccc3ccncc3c2/C1=C/Nc1ccc(CCO)cc1 | 75 nM
O=C1Nc2ncc(Br)cc2/C1=C/Nc1ccc2ncccc2c1 | 55 nM
CCOC(=O)c1cnc2c(c1)/C(=C/Nc1ccc3ncccc3c1)C(=O)N2 | 550 nM
O=C1Nc2ccc3ccncc3c2/C1=C/Nc1ccc(N2CCOCC2)cc1 | > 100 nM
NS(=O)(=O)c1ccc(N/C=C2\C(=O)Nc3nc(Cl)ccc32)cc1 | 550 nM
O=C1Nc2ncc(-c3ccsc3)cc2/C1=C/Nc1ccc2cn[nH]c2c1 | 550 nM
NS(=O)(=O)c1ccc(N/C=C2\C(=O)Nc3ncc(-c4ccco4)cc32)cc1 | 55 nM
NS(=O)(=O)c1ccc(N/C=C2\C(=O)Nc3ncc(Br)cc32)cc1 | 55 nM
O=C1Nc2nc(Cl)ccc2/C1=C/Nc1ccc2cn[nH]c2c1 | 550 nM

Target: CDK2 (human) (UniProt P24941)
Test: Cell-Based Assay
Settings: hdf-3

SMILES | IC50
NS(=O)(=O)c1ccc(NN=C2C(=O)Nc3ccc(-c4cnco4)cc32)cc1 | 350 nM

Same assay, conditions: mda-mb-468

SMILES | IC50
CN(C)S(=O)(=O)c1ccc(N/C=C2\C(=O)Nc3ccc(-c4cnco4)cc32)cc1 | > 5000 nM
CNS(=O)(=O)Cc1ccc(NN=C2C(=O)Nc3cc(C)c(O)c(C)c32)cc1 | 300 nM
NS(=O)(=O)c1ccc(NN=C2C(=O)Nc3ccc(-c4cnco4)cc32)cc1 | 350 nM

Same assay, conditions: rko

SMILES | IC50
NS(=O)(=O)c1ccc(NN=C2C(=O)Nc3ccc(-c4cnco4)cc32)cc1 | 350 nM

Target: CDK2 (human) (UniProt P24941)
Test: Cell-Based Assay
Settings: rko

SMILES | IC50
NS(=O)(=O)c1ccc(NN=C2C(=O)Nc3ccc(-c4cnco4)cc32)cc1 | 350 nM
